Where two headings read alike, the source gives them in different places.
What was measured:
Format in all cases: in vivo
Zymoseptoria tritici = assay: Leaf blotch of wheat (SEPTTR), disease control on wheat seedlings; conditions: low volume application at 121.5 g/H, wheat leaf blotch
Method in brief: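 Yuma wheat seedlings with the first leaf fully emerged were sprayed to run-off with compound in acetone plus nine volumes of water containing 110 ppm Triton X-100; track-spray tests used EC formulations with 0.1% Trycol 5941. Z. tritici inoculation came before or after treatment, followed by 100% RH dew periods and a 20 °C greenhouse. Percent control was calculated from severity versus untreated plants.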

Phakopsora pachyrhizi = assay: Asian soybean rust (PHAKPA), disease control on soybean seedlings; conditions: High volume application at 25 ppm
Method in brief: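 Two-week-old Williams 82 soybean seedlings were sprayed to run-off with compound in acetone/water (1:9) containing 0.011% Tween 20. Inoculation was 3 days before (curative) or 1 day after (protectant) treatment, followed by 24 h dark dew at 22 °C, 100% RH, then 23 °C; disease severity scored on sprayed leaves.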

Puccinia triticina = assay: Wheat brown rust (PUCCRT), disease control on wheat seedlings; conditions: low volume application at 121.5 g/H, wheat brown rust
Method in brief: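 Compounds in acetone, diluted with nine volumes of water containing 110 ppm Triton X-100, sprayed to run-off on first-leaf Yuma wheat seedlings; track-spray tests used EC formulations with 0.1% Trycol 5941. Puccinia triticina spores applied before or after treatment. Overnight dark dew room at 22° C, 100% humidity, then greenhouse at 24° C.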

[1] = 24 h, 1 Day Protectant, read-out: SEPTTR 1DP disease control, LV activity
[2] = 72 h, 3 Day Curative, read-out: SEPTTR 3DC disease control, LV activity
[3] = 24 h, 1 Day Protectant, read-out: PHAKPA 1DP disease control rating
[4] = 72 h, 3 Day Curative, read-out: PHAKPA 3DC disease control rating
[5] = 24 h, 1 Day Protectant, read-out: PUCCRT 1DP disease control, LV activity
[6] = 72 h, 3 Day Curative, read-out: PUCCRT 3DC disease control, LV activity

COc1ccnc(C(=O)N[C@@H](C)C(=O)O[C@@H](C)[C@@H](c2ccc(F)cc2F)C(C)C)c1OC(C)=O [Compound 368]
pest or weed control at 121.5 g/ha (Zymoseptoria tritici; [1]): < 80%
pest or weed control at 121.5 g/ha (Zymoseptoria tritici; [2]): < 80%
pest or weed control at 25 ppm (Phakopsora pachyrhizi; [3]): < 80%
pest or weed control at 25 ppm (Phakopsora pachyrhizi; [4]): < 80%
pest or weed control at 121.5 g/ha (Puccinia triticina; [5]): < 80%
pest or weed control at 121.5 g/ha (Puccinia triticina; [6]): < 0%

COc1ccnc(C(=O)N[C@@H](C)C(=O)O[C@@H](C)[C@@H](c2ccc(C)cc2F)C(C)C)c1OC(C)=O [Compound 369]
pest or weed control at 121.5 g/ha (Zymoseptoria tritici; [1]): < 80%
pest or weed control at 121.5 g/ha (Zymoseptoria tritici; [2]): < 80%
pest or weed control at 25 ppm (Phakopsora pachyrhizi; [3]): < 80%
pest or weed control at 25 ppm (Phakopsora pachyrhizi; [4]): < 80%
pest or weed control at 121.5 g/ha (Puccinia triticina; [5]): > 80%
pest or weed control at 121.5 g/ha (Puccinia triticina; [6]): < 80%

COc1ccnc(C(=O)N[C@@H](C)C(=O)O[C@@H](C)[C@@H](c2ccc(Cl)cc2Cl)C(C)C)c1OC(C)=O [Compound 370]
pest or weed control at 121.5 g/ha (Zymoseptoria tritici; [1]): < 80%
pest or weed control at 121.5 g/ha (Zymoseptoria tritici; [2]): < 80%
pest or weed control at 25 ppm (Phakopsora pachyrhizi; [3]): < 80%
pest or weed control at 25 ppm (Phakopsora pachyrhizi; [4]): < 80%
pest or weed control at 121.5 g/ha (Puccinia triticina; [5]): < 80%
pest or weed control at 121.5 g/ha (Puccinia triticina; [6]): < 0%

COc1ccnc(C(=O)N[C@@H](C)C(=O)O[C@@H](C)[C@H](c2ccccc2OC(C)C)C(C)C)c1OC(C)=O [Compound 376]
pest or weed control at 121.5 g/ha (Zymoseptoria tritici; [1]): < 80%
pest or weed control at 121.5 g/ha (Zymoseptoria tritici; [2]): < 80%
pest or weed control at 25 ppm (Phakopsora pachyrhizi; [3]): > 80%
pest or weed control at 25 ppm (Phakopsora pachyrhizi; [4]): < 80%
pest or weed control at 121.5 g/ha (Puccinia triticina; [5]): > 80%
pest or weed control at 121.5 g/ha (Puccinia triticina; [6]): < 80%

COc1ccnc(C(=O)N[C@@H](C)C(=O)O[C@@H](C)[C@H](c2ccc(OC(C)C)cc2)C(C)C)c1OC(C)=O [Compound 377]
pest or weed control at 121.5 g/ha (Zymoseptoria tritici; [1]): < 80%
pest or weed control at 121.5 g/ha (Zymoseptoria tritici; [2]): < 80%
pest or weed control at 25 ppm (Phakopsora pachyrhizi; [3]): < 80%
pest or weed control at 25 ppm (Phakopsora pachyrhizi; [4]): < 80%
pest or weed control at 121.5 g/ha (Puccinia triticina; [5]): > 80%
pest or weed control at 121.5 g/ha (Puccinia triticina; [6]): < 80%

COc1ccnc(C(=O)N[C@@H](C)C(=O)O[C@@H](C)[C@H](c2ccc(OC(F)(F)F)cc2)C(C)C)c1OCOC(C)=O [Compound 378]
pest or weed control at 121.5 g/ha (Zymoseptoria tritici; [1]): > 80%
pest or weed control at 121.5 g/ha (Zymoseptoria tritici; [2]): > 80%
pest or weed control at 25 ppm (Phakopsora pachyrhizi; [3]): < 80%
pest or weed control at 25 ppm (Phakopsora pachyrhizi; [4]): < 80%
pest or weed control at 121.5 g/ha (Puccinia triticina; [5]): > 80%
pest or weed control at 121.5 g/ha (Puccinia triticina; [6]): > 80%

COc1ccnc(C(=O)N[C@@H](C)C(=O)O[C@@H](C)[C@H](c2ccc(OC(C)C)cc2)C(C)C)c1OCOC(C)=O [Compound 379]
pest or weed control at 121.5 g/ha (Zymoseptoria tritici; [1]): < 80%
pest or weed control at 121.5 g/ha (Zymoseptoria tritici; [2]): < 80%
pest or weed control at 25 ppm (Phakopsora pachyrhizi; [3]): < 80%
pest or weed control at 25 ppm (Phakopsora pachyrhizi; [4]): < 80%
pest or weed control at 121.5 g/ha (Puccinia triticina; [5]): > 80%
pest or weed control at 121.5 g/ha (Puccinia triticina; [6]): < 80%

COc1ccnc(C(=O)N[C@@H](C)C(=O)O[C@@H](C)[C@H](c2ccc3c(c2)OCO3)C(C)C)c1OC(C)=O [Compound 380]
pest or weed control at 121.5 g/ha (Zymoseptoria tritici; [1]): < 80%
pest or weed control at 121.5 g/ha (Zymoseptoria tritici; [2]): < 80%
pest or weed control at 25 ppm (Phakopsora pachyrhizi; [3]): < 80%
pest or weed control at 25 ppm (Phakopsora pachyrhizi; [4]): < 80%
pest or weed control at 121.5 g/ha (Puccinia triticina; [5]): > 80%
pest or weed control at 121.5 g/ha (Puccinia triticina; [6]): > 80%

COc1ccnc(C(=O)N[C@@H](C)C(=O)O[C@@H](C)[C@H](c2ccc(OC(F)(F)F)cc2)C(C)C)c1OC(C)=O [Compound 381]
pest or weed control at 121.5 g/ha (Zymoseptoria tritici; [1]): > 80%
pest or weed control at 121.5 g/ha (Zymoseptoria tritici; [2]): > 80%
pest or weed control at 25 ppm (Phakopsora pachyrhizi; [3]): < 80%
pest or weed control at 25 ppm (Phakopsora pachyrhizi; [4]): < 80%
pest or weed control at 121.5 g/ha (Puccinia triticina; [5]): > 80%
pest or weed control at 121.5 g/ha (Puccinia triticina; [6]): < 80%

COc1ccc([C@H](C(C)C)[C@H](C)OC(=O)[C@H](C)NC(=O)c2nccc(OC)c2OCOC(C)=O)cc1 [Compound 382]
pest or weed control at 121.5 g/ha (Zymoseptoria tritici; [1]): < 80%
pest or weed control at 121.5 g/ha (Zymoseptoria tritici; [2]): > 80%
pest or weed control at 25 ppm (Phakopsora pachyrhizi; [3]): > 80%
pest or weed control at 25 ppm (Phakopsora pachyrhizi; [4]): < 80%
pest or weed control at 121.5 g/ha (Puccinia triticina; [5]): > 80%
pest or weed control at 121.5 g/ha (Puccinia triticina; [6]): > 80%

COc1ccc([C@H](C(C)C)[C@H](C)OC(=O)[C@H](C)NC(=O)c2nccc(OC)c2OC(C)=O)cc1 [Compound 383]
pest or weed control at 121.5 g/ha (Zymoseptoria tritici; [1]): < 80%
pest or weed control at 121.5 g/ha (Zymoseptoria tritici; [2]): < 80%
pest or weed control at 25 ppm (Phakopsora pachyrhizi; [3]): > 80%
pest or weed control at 25 ppm (Phakopsora pachyrhizi; [4]): < 80%
pest or weed control at 121.5 g/ha (Puccinia triticina; [5]): > 80%
pest or weed control at 121.5 g/ha (Puccinia triticina; [6]): < 80%

— US20180186742A1, “PICOLINAMIDES AS FUNGICIDES” (Dow AgroSciences LLC, priority 2017, published 2018)
